Laboratory results: patent US20170088822A1 (priority 2015, published 2017)
Where “and” joins values, the source holds several entries; their conditions need not be identical. Equal entries are not always repeated.

Key:
[1] = test system: BpmFabI; format: binding, Burkholderia pseudomallei
[2] = test system: drug resistant staphylococci including MRSA and MRSE; conditions: cited from earlier work
[3] = test system: BpmFabI; format: biochemical, Burkholderia pseudomallei
[4] = test system: S. aureus; conditions: cited from earlier work

In the case of AFN-1252, the ΔTm [1] is given as 12.76 ± 1.26 °C and 11.61 ± 0.10 °C, the “Activity against drug resistant staphylococci” value [2] is given as “potent” and the “Mechanism of inhibition with respect to NADH (Lineweaver-Burk)” value [3] is given as “mixed inhibition”. The “Mechanism of inhibition with respect to crotonyl-CoA (Lineweaver-Burk)” value [3] was “uncompetitive”, the IC50 ([3]; read-out: IC50 for inhibition of BpmFabI) was 9.6 nM and the MIC50 [4] was 2 to 120 ng/mL.
